Results reported in patent publication US20050187208A1 (priority 2004, published 2005).
Structures can show the parent of a compound that is named as a salt.

Tests used:
[1] = system: cannabinoid receptors; test: Mouse tetrad model, antagonistic effect against Win 55212-2; format: in vivo; set-up: unit not given here; conditions: 5 mg/kg i.v. prior to Win 55212-2 1.25 mg/kg i.v.; male NMRI mice
Text: (§1) Substances with affinity for cannabinoid receptors are known to produce a wide range of pharmacological effects. It is also known that intravenous administration of a substance with affinity for cannabinoid receptors in mice produces analgesia, hypothermia, sedation and catalepsy. Individually, none of these effects can be considered as proof that a tested substance has affinity for cannabinoid-receptors, since all of these effects are common for various classes of centrally active agents. However, substances, which show all of these effects, i.e. substances that are active in this so-called tetrad model are considered to have affinity for the cannabinoid receptors. It has further been shown that cannabinoid receptor antagonists are higly effective in blocking the effects of a cannabinoid agonist in the mouse tetrad model.
(§2) The tetrad model is described, for example, in the publication of A. C. Howlett et al, International Union of Pharmacology XXVII. Classification of Cannabinoid Receptors, Pharmacol Rev 54, 161-202, 2002 and David R. Compton et al., “In-vivo Characterization of a Specific Cannabinoid Receptor Antagonist (SR141716A): Inhibition of Tetrahydrocannbinol-induced Responses and Apparent Agonist Activity”, J. Pharmacol. Exp. Ther. 277, 2, 586-594, 1996. The corresponding parts of the description are hereby incorporated by reference.
(§3) Male NMRI mice with a weight of 20-30 g (Harlan, Barcelona, Spain) are used in all of the following experiments.
(§4) Before testing in the behavioral procedures given below, mice are acclimatized to the experimental setting. Pre-Treatment control values are determined for analgesia hot plate latency (in seconds), rectal temperature, sedation and catalepsy.
(§5) In order to determine the agonistic activty of the substance to be tested, the mice are injected intravenously with the substance to be tested or the vehicle alone. 15 minutes after injection, latency in hot plate analgesia is measured. Rectal temperature, sedation and catalepsy are measured 20 minutes after injection.
In order to determine the antagonistic activity the identical procedure is used as for the determination of the agonistic effects, but with the difference that the substance to be evaluated for its antagonistic activity is injectected 5 minutes before the intravenous injection of 1.25 mg/kg Win-55,212 a known cannabinoid-receptor agonist.
(§6) The hot plate analgesia is determined according to the method described in Woolfe D. et al. “The evaluation of analgesic action of pethidine hydrochloride (Demerol)”, J. Pharmacol. Exp. Ther. 80, 300-307, 1944. The respective description is hereby incorporated by reference and forms part of the present disclosure.
(§7) The mice are placed on a hot plate (Harvard Analgesimeter) at 55±0.5° C. until they show a painful sensation by licking their paws or jumping and the time for these sensations to occur is recorded. This reading is considered the basal value (B). The maximum time limit the mice are allowed to remain on the hot plate in absence of any painful response is 40 seconds in order to prevent skin damage. This period is called the cut-off time (PC).
(§8) Fifteen minuts after the administration of the substance to be tested, the mice are again placed on the hot plate and the afore described procedure is repeated. This period is called the post-treatment reading (PT).
(§9) The degree of analgesia is calculated from the formula: % MPE of Analgesia=(PT−B)/(PC−B)×100 • MPE Maximum possible effect. Determination of Sedation and Ataxia
(§10) Sedation and ataxia is determined according to the method described in Desmet L. K. C. et al. “Anticonvulsive properties of.Cinarizine and Flunarizine in Rats and Mice”, Arzneim. -Forsch. (Frug Res) 25, 9, 1975. The respective description is hereby incorporated by reference and forms part of the present disclosure.
The chosen scoring system is • 0: no ataxia; • 1: doubful; • 2: obvious calmness and quiet; • 3 pronounced ataxia; prior to as well as after treatment. […]

[2] = target: T1, transfected human CB1 receptor (Homo sapiens, UniProt P21554); test: In-vitro determination of affinity to CB1 receptor, radioligand [^3H]-CP55940; format: binding; conditions: read-out: CB1 Receptor % Inhibition 10^−6 M
T1 construct: purchased Receptor Biology, Inc
Protocol: I. In-vitro Determination of Affinity to CB1/CB2-Rezeptors
The in-vitro determination of the affinity of the inventive substituted azetidine compounds to CB1/CB2-Receptors is carried out as described in the publication of Ruth A. Ross, Heather C. Brockie et al., “Agonist-inverse agonist characterization at CB1 and CB2 cannabinoid receptors of L-759633, L759656 and AM630”, British Journal of Pharmacology, 126, 665-672, (1999). The respective parts of the descriptions are hereby incorporated by reference and form part of the present disclosure. The transfected human CB1 and CB2 receptor are obtained from Receptor Biology, Inc. The radioligand used for both receptors is [^3H]-CP55940.
The affinity of the inventive substituted azetidine compounds to CB1/CB2 receptors is determined as described above.

[3] = system: cannabinoid receptors; test: Mouse tetrad model, agonistic effect (hot plate, hypothermia, catalepsy, sedation); format: in vivo; set-up: key to Agonistic effect A: Hot-Plate test: % MPE = (PT−B)/(PC−B)×100; key to Agonistic effect D: Sedation: % sedation = mean score (0-3)/3×100; Agonistic effect B: Hypothermia: unit not given here; conditions: 5 mg/kg i.v., male NMRI mice; for Agonistic effect A: Hot-Plate test: 15 minutes after injection; for Agonistic effect B: Hypothermia / Agonistic effect C: Catalepsy / Agonistic effect D: Sedation: 20 minutes after injection
Text: as §1, §2, §3, §4, §5, §6, §7, §8, §9, §10
The chosen scoring system is • 0: no ataxia; • 1: doubful; • 2: obvious calmness and quiet; • 3 pronounced ataxia; prior to as well as after treatment.
The percentage of sedation is determined according to the formula: % of sedation=arithmetic mean/3×100 Hypothermia: […]

T1 sequence (P21554 whole entry): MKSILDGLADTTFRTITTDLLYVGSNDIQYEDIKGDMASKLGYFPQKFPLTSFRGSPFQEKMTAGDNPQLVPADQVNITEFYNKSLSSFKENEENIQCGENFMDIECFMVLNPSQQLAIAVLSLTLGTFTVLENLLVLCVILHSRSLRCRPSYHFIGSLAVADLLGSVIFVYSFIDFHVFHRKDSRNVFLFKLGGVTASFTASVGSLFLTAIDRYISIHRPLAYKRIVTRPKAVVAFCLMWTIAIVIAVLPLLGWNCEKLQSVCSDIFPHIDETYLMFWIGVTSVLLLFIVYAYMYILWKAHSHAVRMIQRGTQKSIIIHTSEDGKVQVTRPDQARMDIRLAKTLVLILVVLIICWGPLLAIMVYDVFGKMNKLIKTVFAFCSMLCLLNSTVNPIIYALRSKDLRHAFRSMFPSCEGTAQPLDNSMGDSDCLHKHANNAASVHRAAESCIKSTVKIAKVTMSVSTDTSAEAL

SMILES | melting point | other results
C[C@@H]1[C@@H](N(S(=O)(=O)c2ccc(F)cc2)S(=O)(=O)c2ccc(F)cc2)CN1C(c1ccc(Cl)cc1)c1ccc(Cl)cc1 | 60 to 64 °C | 
C[C@@H]1[C@@H](NS(=O)(=O)c2ccc(-c3ccccc3)cc2)CN1C(c1ccc(Cl)cc1)c1ccc(Cl)cc1 (relative stereo) | 145 to 148 °C | 
C[C@@H]1[C@@H](OS(=O)(=O)c2ccc(F)cc2)CN1C(c1ccc(Cl)cc1)c1ccc(Cl)cc1 (relative stereo) [Example 1, 4-Fluoro-benzenesulfonic acid-trans-1-[bis-(4-chloro-phenyl)-methyl]-2-methyl-azetidin-3-yl ester] | 105 to 107 °C | Antagonistic Effect A: Hot-Plate test [1]: 46; Antagonistic Effect C: Catalepsy [1]: 47; inhibition at 1 µM [2]: 60%
C[C@@H]1[C@@H](NS(=O)(=O)c2ccc(S(C)(=O)=O)cc2)CN1C(c1ccc(Cl)cc1)c1ccc(Cl)cc1 (relative stereo) [Example 14, N-{trans-1-[Bis-(4chloro-phenyl)methyl]-2-methyl-azetidin-3-yl}-4-methylsulfonyl-benzenesulfonamide] | 202 to 204 °C | Agonistic effect A: Hot-Plate test [3]: 16; Agonistic effect B: Hypothermia [3]: 0; Agonistic effect C: Catalepsy [3]: 0; Agonistic effect D: Sedation [3]: 0; Antagonistic Effect A: Hot-Plate test [1]: 12; Antagonistic Effect B: Hypothermia [1]: 71; Antagonistic Effect C: Catalepsy [1]: 14; Antagonistic Effect D: Sedation [1]: 9; inhibition at 1 µM [2]: 82%
C[C@@H]1[C@@H](NS(=O)(=O)c2cccc3nsnc23)CN1C(c1ccc(Cl)cc1)c1ccc(Cl)cc1 (relative stereo) [Example 15, 2,1,3-Benzothiadiazole-4-sulfonic acid {trans-1-[bis-(4-chloro-phenyl)-methyl]-2-methyl-azetidin-3-yl}-amide] |  | Agonistic effect A: Hot-Plate test [3]: 14; Agonistic effect B: Hypothermia [3]: 0; Agonistic effect C: Catalepsy [3]: 0; Agonistic effect D: Sedation [3]: 0; Antagonistic Effect A: Hot-Plate test [1]: 72; Antagonistic Effect B: Hypothermia [1]: 100; Antagonistic Effect C: Catalepsy [1]: 57; Antagonistic Effect D: Sedation [1]: 71; inhibition at 1 µM [2]: 66%
C[C@@H]1[C@@H](NS(=O)(=O)c2cc(Cl)cc(Cl)c2)CN1C(c1ccc(Cl)cc1)c1ccc(Cl)cc1 (relative stereo) [Example 18, N-{trans-1-[Bis-(4-chloro-phenyl)-methyl]-2-methyl-azetidin-3-yl}-3,5-dichloro-benzenesulfonamide] | 144 to 146 °C | inhibition at 1 µM [2]: 95%
C[C@@H]1[C@@H](NS(=O)(=O)c2csc3ccccc23)CN1C(c1ccc(Cl)cc1)c1ccc(Cl)cc1 (relative stereo) [Example 25, Benzo[b]thiophene-3-sulfonic acid {trans-1-[bis-(4-chloro-phenyl)-methyl]-2-methyl-azetidin-3-yl}amide] | 192 to 197 °C | inhibition at 1 µM [2]: 87%
C[C@@H]1[C@@H](NS(=O)(=O)c2ccc(Oc3ccc(Br)cc3)cc2)CN1C(c1ccc(Cl)cc1)c1ccc(Cl)cc1 (stereo in doubt) | 115 to 119 °C | 
C[C@@H]1[C@@H](NS(=O)(=O)CCc2cccc3ccccc23)CN1C(c1ccc(Cl)cc1)c1ccc(Cl)cc1 (stereo in doubt) | 123 to 128 °C | 
C[C@@H]1[C@@H](NS(=O)(=O)c2cccc3ccccc23)CN1C(c1ccc(Cl)cc1)c1ccc(Cl)cc1 (stereo in doubt) | 171 to 174 °C | 
C[C@@H]1[C@@H](NS(=O)(=O)c2ccc(Oc3ccccc3)cc2)CN1C(c1ccc(Cl)cc1)c1ccc(Cl)cc1 (stereo in doubt) | 160 to 162 °C | 
Cc1c(S(=O)(=O)N[C@H]2CN(C(c3ccc(Cl)cc3)c3ccc(Cl)cc3)[C@@H]2C)cnn1-c1ccccc1 (stereo in doubt) | 173 to 176 °C | 
C[C@@H]1[C@@H](N(Cc2ccc(F)cc2)S(=O)(=O)c2ccc(F)cc2)CN1C(c1ccc(Cl)cc1)c1ccc(Cl)cc1 (stereo in doubt) | 75 to 78 °C | 
CCCN([C@H]1CN(C(c2ccc(Cl)cc2)c2ccc(Cl)cc2)[C@@H]1C)S(=O)(=O)c1ccc(F)cc1 (stereo in doubt) | 91 to 97 °C | 
C[C@@H]1[C@@H](NS(=O)(=O)c2ccc(F)cc2)CN1C(c1ccc(Cl)cc1)c1ccc(Cl)cc1 [Example 33, N-{(2R,3S)-1-[Bis-(4-chloro-phenyl)-methyl]-2-methyl-azetidin-3-yl}-4-fluoro-benzenesulfonamide] | 154 to 158 °C | inhibition at 1 µM [2]: 71%

Now from value to molecule, other results behind:

melting point | SMILES | other results
173 to 175 °C | Cc1nn(C)c(C)c1S(=O)(=O)N[C@H]1CN(C(c2ccc(Cl)cc2)c2ccc(Cl)cc2)[C@@H]1C | 
65 to 68 °C | C[C@H]1[C@H](NC(=O)C2CCCCC2)CN1C(c1ccc(Cl)cc1)c1ccc(Cl)cc1 | 
57 to 60 °C | C[C@H]1[C@H](NC(=O)c2cc(F)cc(F)c2)CN1C(c1ccc(Cl)cc1)c1ccc(Cl)cc1 | 
154 to 157 °C | C[C@H]1C(NS(=O)(=O)c2ccc(F)cc2)CN1C(c1ccc(Cl)cc1)c1ccc(Cl)cc1 (mixture of isomers) | 
164 to 169 °C | C[C@@H]1[C@@H](NS(=O)(=O)c2c(Cl)nc3sccn23)CN1C(c1ccc(Cl)cc1)c1ccc(Cl)cc1 (relative stereo) | 
156 to 160 °C | C[C@@H]1[C@@H](NS(=O)(=O)c2ccc3ccccc3c2)CN1C(c1ccc(Cl)cc1)c1ccc(Cl)cc1 (stereo in doubt) | 
177 to 180 °C | CC(=O)c1ccc(S(=O)(=O)N[C@H]2CN(C(c3ccc(Cl)cc3)c3ccc(Cl)cc3)[C@@H]2C)cc1 (stereo in doubt) | 
105 to 108 °C | Cc1c(S(=O)(=O)N[C@H]2CN(C(c3ccc(Cl)cc3)c3ccc(Cl)cc3)[C@@H]2C)sc2ccc(Cl)cc12 (stereo in doubt) | 
182 to 186 °C | C[C@@H]1C(N(C)S(=O)(=O)c2ccc(F)cc2)CN1C(c1ccc(Cl)cc1)c1ccc(Cl)cc1 (stereo in doubt) | 
134 to 136 °C | C[C@H]1[C@H](N)CN1C(c1ccc(Cl)cc1)c1ccc(Cl)cc1 (stereo in doubt) | 
122 to 127 °C | C[C@H]1[C@H](NC(=O)C(F)(F)F)CN1C(c1ccc(Cl)cc1)c1ccc(Cl)cc1 (stereo in doubt) (as salt: TFA) | 
